The subject of test [1] is THP1 (human monocytic cell line). Briefly: MTT cytotoxicity assay, leukemic cell line THP1. To be noted: Homo sapiens, THP-1, 72 h, three days. The class given is cell-based. The method in brief: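 MTT viability, 3-day compound treatment (0.01–100 μM range, triplicates), A620 after DMSO solubilization. Each drug application was assayed in 3 independent repeats.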
A general note: Tetrazolium assays rely on reduction of a dye to a coloured formazan, in cell work by metabolically active cells.

Test [2] deals with Mdm-2. The test is described as follows: Immunoblotting of apoptotic markers in HCT116 cells: Mdm-2. To be noted: 24 hours, FIG. 4. Type of test: cell-based. The protocol:
Effect of novel compounds on apoptosis was confirmed by immunoblotting analysis of selected apoptotic proteins. For immunoblotting, cell were harvested, washed three times with ice-cold PBS and lysed in a buffer (50 mM Tris, pH 7.4, 250 mM NaCl, 5 mM EDTA, 50 mM NaF, 1 mM Na3VO4, 1% Nonidet P40) containing mixture of protease and phosphatase inhibitors (Sigma-Aldrich). 20 μg of total proteins were separated by SDS-polyacrylamide gel electrophoresis (SDS-PAGE) and transferred onto nitrocellulose membranes. Membranes were blocked in 5% milk and 0.1% Tween 20 in PBS and probed overnight with specific antibodies. Specific antibodies were purchased from SigmaAldrich (anti a-tubulin, clone DM1A), Santa Cruz Biotechnology (anti-Mcl-1, clone S-19; anti-PARP, clone F-2; anti-Mdm-2, clone SMP14; anti-Bcl-2), DAKO Cytomation Cell Signaling (anti-PUMA) or were a generous gift from Dr. B. Vojtesek (anti-p53, clone DO-1). All primary antibodies were diluted in PBS containing 5% powdered milk; 0.1% Tween 20. Peroxidase conjugated rabbit anti-mouse immunoglobulin or porcine anti-rabbit immunoglobulin antisera (DAKO) were used as the secondary antibodies and visualised with ECL reagents (GE-Healthcare Life Sciences).

As a reminder, the IC50 is the point on the concentration scale where inhibition reaches its midpoint. A lower IC50 goes with greater potency in that assay. `CC(C)c1[nH]nc2c(NCc3ccc(-c4ccccn4)cc3)nc(NCC(O)CN)nc12` (centres unmarked) [Compound 45] registered an IC50 in test [1] of 0.49 µM. Also, the “expression of Mdm-2 (immunoblot)” value in test [2] is on record as “decreased expression”.

The values above are taken from US9957273B2, “5-substituted 7- [4-(2-pyridyl)phenylmethylamino] -3-isopropylpyrazolo4,3-D]pyrimidine derivatives, use thereof as medicaments, and pharmaceutical compositions” (USTAV EXPERIMENTALNI BOTANIKY AV CR, V.V.I., priority 2015, dated 2018).
